Source: PMC11684029, “Discovery of VU6024578/BI02982816: An mGlu1 Positive Allosteric Modulator with Efficacy in Preclinical Antipsychotic and Cognition Models” (Journal of Medicinal Chemistry, 2024)

Experiments:
[1] = plasma protein binding, equilibrium dialysis; format: in vitro ADME, human; details: fraction unbound
Method: The protein binding of each compound was determined in plasma via equilibrium dialysis employing RED Plates (ThermoFisher Scientific, Rochester, NY). Plasma was added to the 96 well plate containing test compound and mixed thoroughly for a final concentration of 5 μM. Subsequently, an aliquot of the plasma-compound mixture was transferred to the cis chamber (red) of the RED plate, with an phosphate buffer (25 mM, pH 7.4) in the trans chamber. The RED plate was sealed and incubated for 4 h at 37 °C with shaking. At completion, aliquots from each chamber were diluted 1:1 with either plasma (cis) or buffer (trans) and transferred to a new 96 well plate, at which time ice-cold acetonitrile containing internal standard (50 ng/mL carbamazepine) (2 volumes) was added to extract the matrices. The plate was centrifuged (3000 rcf, 10 min) and supernatants transferred and diluted 1:1 (supernatant: water) into a new 96 well plate, which was then sealed in preparation for LC/MS/MS analysis. Each compound was assayed in triplicate within the same 96-well plate. Fraction unbound was determined using the following equation [drawing 1]

brain homogenate binding = format: in vitro ADME, rat; details: fraction unbound
3A4 = 3A4 (Homo sapiens, UniProt P08684); test: 3A4 mechanism-based inhibition; format: in vitro ADME
rat IP PBL study = format: in vivo; details: 3 mg/kg IP, at Tmax
Source text: Thus, 19d was a stable chemical entity in vivo. […] Overall, the rat PK and CNS penetration was supportive of in vivo work and progression down the development flow-chart.

Sprague–Dawley rats = test: spontaneous locomotion; format: in vivo; details: rat, doses up to 10 mg/kg p.o.
Method: In order to enable our target validation work, we first profiled PAM 19d in a rat locomotor battery to ensure that pharmacodynamic efficacy was not mistaken for gross effects on locomotion.[20] […] PK was performed in parallel to establish a PK/PD relationship.[24]
Adult male Sprague–Dawley rats were administered VU6024578 (1–10 mg/kg p.o.) or vehicle and were tested in the […]. Seventy minutes later the animals were placed into the activity chambers (Med Associates) for 30 min.

rats = test: MK-801 induced disruption of novel object recognition; format: in vivo; details: rat, p.o.
Method: Based on our previous work with the mGlu1 PAM 4,[6]−[9],[14]−[19] we first evaluated the ability of 19d to reverse MK-801 disruptions of novel object recognition (NOR) in rats (Figure 6).
Figure 6 Rat MK-801 induced disruption of novel object recognition and reversal by VU6024578 (19d). MK-801 (0.5 mg/kg IP) induced a robust disruption of NOR, which was dose-dependently reversed by oral administration (10% tween 80) of 19d.
The animals are habituated to the novel object arenas for 1 day prior to testing. This is accomplished by placing the animal in the arena with no objects for 10 min and then placed back into the home cage. The arena is then cleaned with 70% ethanol in between animals. The day of the test the animals are habituated to the dosing room for 2 h. The animals were administered VU6024578 (1–10 mg/kg p.o.) or vehicle (10% Tween 80) and were placed back into their homecage for 60 min. The animals were then injected with MK-801 (0.075 mg/kg 1 mL/kg s.c.) and placed back in the homecage for 30 min. […] The activity of the animals are recorded and the time spent exploring each of the objects is scored by a blinded observer. Recognition index is determined by subtracting […] divided by total time spent exploring.

male beagles = test: adverse events in dog PK; format: in vivo; details: 0.5 mg/kg IV
Method: Deeper profiling began with IV dog PK (0.5 mg/kg, n = 3 male beagles). […] Was this a mechanism-based toxicity in dog? Could there be dog-specific pharmacology of mGlu1 activation? Were these AEs derived from the 19d chemotype? Could a mGlu1/mGlu5 heterodimer be responsible for the observed AEs? […] In an attempt to address the chemotype question, we evaluated PAM 4 (VU6004909),[8] an early generation rodent in vivo tool compound, for the first time in dog PK. […] of the study with 19d, PAM 4 produced no AEs in dog. […] Therefore, more molecular pharmacology and PK studies as well as additional chemically distinct mGlu1 PAM chemotypes are required to understand the AEs elicited by an mGlu1 PAM in dogs, an otherwise very promising target for the treatment of schizophrenia.

Adenosine A1 = target: T1, Adenosine A1 (Homo sapiens, UniProt P30542); test: Eurofins radioligand binding panel; details: antagonist radioligand
T1 construct: Eurofins
Source text: (§1) Table S1. Eurofins Lead Profiling Screen Data
(§2) This is a radioligand binding panel of 80 targets including GPCRs, ion channels, transporters and nuclear hormones. Biochemical assay results are presented as the percent inhibition of specific […]
Results showing an inhibition or stimulation higher than 50% are considered to represent significant effect and are highlighted […]
Target / Protein Species % Inhibition at 10

TNF-alpha = test: Eurofins radioligand binding panel; design: species or system human; details: agonist radioligand
Source text: as §1, §2
(§3) Results showing an inhibition or stimulation higher than 50% are considered to represent significant effect and are highlighted

sigma (non-selective) = test: Eurofins radioligand binding panel; design: species or system human; details: agonist radioligand
Source text: as §1, §2, §3

3A4, sequence (P08684 whole entry): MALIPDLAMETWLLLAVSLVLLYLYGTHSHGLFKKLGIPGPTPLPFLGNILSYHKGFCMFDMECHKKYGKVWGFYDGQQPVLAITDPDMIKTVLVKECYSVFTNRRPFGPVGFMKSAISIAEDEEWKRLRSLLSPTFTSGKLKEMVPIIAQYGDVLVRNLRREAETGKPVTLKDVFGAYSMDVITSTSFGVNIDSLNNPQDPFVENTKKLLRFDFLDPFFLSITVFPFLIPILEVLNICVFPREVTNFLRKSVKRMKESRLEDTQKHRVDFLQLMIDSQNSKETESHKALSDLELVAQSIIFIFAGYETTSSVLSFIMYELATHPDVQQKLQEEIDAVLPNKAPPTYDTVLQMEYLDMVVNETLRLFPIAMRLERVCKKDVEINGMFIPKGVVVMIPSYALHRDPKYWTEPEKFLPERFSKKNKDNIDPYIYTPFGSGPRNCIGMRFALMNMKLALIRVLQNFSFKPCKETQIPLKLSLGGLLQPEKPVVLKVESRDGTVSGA
T1 sequence (P30542 whole entry): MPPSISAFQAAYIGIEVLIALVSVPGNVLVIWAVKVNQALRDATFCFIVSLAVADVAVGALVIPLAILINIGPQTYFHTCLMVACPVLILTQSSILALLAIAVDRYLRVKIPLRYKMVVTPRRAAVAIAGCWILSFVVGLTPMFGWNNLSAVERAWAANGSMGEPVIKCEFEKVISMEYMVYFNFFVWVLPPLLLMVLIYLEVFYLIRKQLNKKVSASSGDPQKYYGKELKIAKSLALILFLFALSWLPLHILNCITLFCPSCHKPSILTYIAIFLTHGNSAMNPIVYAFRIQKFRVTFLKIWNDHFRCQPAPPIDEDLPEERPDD

Compound: Cn1nc(-c2ccnn2C)cc1CNC(=O)c1cc(-c2ccco2)ccc1Cl [Compound 19d, 2-Chloro-N-((1,2′-dimethyl-1H,2’H-[3,3′-bipyrazol]-5-yl)methyl)-5-(furan-2-yl)benzamide]
- human fuplasma [1]: 0.03
- rat fubrain (brain homogenate binding): 0.034
- 3A4 mechanism-based inhibition (3A4): no 3A4 mechanism-based inhibition
- Br[unbound] (rat IP PBL study): 68 nM
- spontaneous locomotion (Sprague–Dawley rats): lack of effect
- minimum effective dose (MED), MK-801 disrupted NOR (rats): 10 mg/kg
- adverse events (AEs) in dog (male beagles; 0.5 mg/kg): GI-salivation and rigidity
- time of AEs postdose (male beagles; at Cmax): 1 to 3 min
- adverse events (AEs) in dog (male beagles; listed as VU6024578/BI02982816, 0.5 mg/kg): unanticipated AEs
- inhibition at 10 µM (Adenosine A1): 8%
- % Inhibition at 10 µM (TNF-alpha): 2%
- % Inhibition at 10 µM (sigma (non-selective)): -11%
